Reference: paper PMC12705620 (Frontiers in Pharmacology, 2025)

Tests used:
S. aureus JAR060131 = test: Bactericidal (time-kill) kinetics; format: cell-based, Staphylococcus aureus; details: 3.75 µM peptide, 1 × 10^6 CFU/mL
Experimental: (§1) Time-kill kinetics were evaluated against S. aureus JAR060131 and A. baumannii RUH875. Mid-logarithmic phase bacterial cultures were diluted to a final concentration of 1 × 10^6 CFU/mL in PBS. Bacteria were incubated with 0.5-, 2-, and 4-fold the LC99.9. Assays were conducted in polypropylene tubes (Micronics) with a total volume of 500 µL. Control samples consisted of bacteria incubated in PBS alone. At 1, 5, 30, and 120 min, 50 µL samples were collected and immediately added to 50 µL of 0.05% (v/v) sodium polyanethol sulfonate (SPS; Sigma-Aldrich) in PBS to neutralize residual peptide activity ([Dankert et al., 1995]). Viable bacterial counts were determined by plating 10 µL of serial 10-fold dilutions onto BA plates. Colonies were counted after 24 h of incubation at 37 °C. All conditions were performed in triplicate.

[1] = tested on: human skin fibroblast cells (BJ); test: Cytotoxicity (WST-1 and LDH); format: cell-based; details: 24 h exposure, triplicate
Experimental: (§2) Cells (5 × 10^5 cells/mL) were seeded in 96-well plates (100 μL/well; Thermo Scientific) and allowed to adhere for 24 h. After adhesion, monolayers were exposed to two-fold serial dilutions of the tetrameric and reference peptides (final concentrations: 60–0.05 µM) in fresh DMEM containing 2% (v/v) FBS, and incubated for 24 h at 37 °C in a humidified 5% CO2 atmosphere. Cell viability was assessed using the water-soluble tetrazolium salt (WST-1; Roche) assay, and membrane integrity was measured using the lactate dehydrogenase (LDH) release assay (Abcam), following manufacturer instructions. Absorbance was measured using the Synergy H1 microplate reader (Biotek). Results are expressed as percentages relative to untreated control (for WST-1) and positive lysis control (for LDH) and all experiments were performed in triplicate.

[2] = tested on: HaCaT human keratinocytes; test: Cytotoxicity (WST-1 and LDH); format: cell-based; details: 24 h exposure, triplicate
Experimental: as §2

human erythrocytes = test: Hemolytic activity; format: cell-based; details: 1% human erythrocytes in PBS, 45 min, 37 °C, absorbance 540 nm, 30% lysis threshold, peptides up to 60 µM, triplicate, single donor
Experimental: Whole blood was collected from healthy volunteers after obtaining informed consent, using Vacuette EDTA tubes (Greiner Bio-One). […] For hemolytic assessment, 180 μL of the prepared erythrocyte suspension was mixed with 20 μL of serially diluted peptide solutions (ranging from 60 to 0.03 μM in PBS).

[3] = tested on: S. aureus LUH14616 (MRSA); test: Ex vivo human skin wound infection model; parameters: species or system Staphylococcus aureus; details: 200 µM topical, 4 h treatment, versus untreated control (Figure 4C), p < 0.001
Excerpt: Human skin from 3 donors was obtained via the Residual Tissue Biobank of the Red Cross Hospital (Beverwijk, Netherlands). The use of these coded, post-operative residual tissue samples was approved by patients through the informed opt-out-plus protocol of the Red Cross Hospital Skin ([Code-of-Conduct-for-Health-Research, 2022]) and processed for an ex vivo wound infection model as described ([Dijksteel et al., 2020]). The Wounded skin grafts were sectioned into approximately 1 cm^2 samples using a sterile scalpel and were decontaminated by immersion in 70% ethanol for 30 min, followed by three PBS washes. Samples were placed dermis-down and wound-side-up on stainless steel grids with central indentations, positioned in 12-well plates, and cultured at the air–liquid interface in DMEM at 37 °C and 5% CO2. To confine reagents to the wound area, a resin barrier (OpalDam; Ultradent) was applied to the wounded area and polymerized using a hand-held UV light (Valo X) for 10 s. The wounds were then topically infected with 10 µL of S. aureus LUH14616 suspension of 1 × 10^7 CFU/mL (final dose: 1 × 10^5 CFU/graft) in PBS for 1 h, followed by topical application of 10 µL of peptide solution for 4 h. Chlorhexidine (0.5% (v/v) in 70% ethanol; Entick B.V.) and PBS were used as positive and negative controls, respectively. After treatment, tissue samples were transferred to polypropylene vials containing 1 mL PBS supplemented with 0.025% (v/v) SPS and a 7 mm stainless steel bead. Homogenization was performed using a MagnaLyser System (Roche) with three 30-s cycles at 7,000 rpm, with 30 s of cooling on ice between cycles. Homogenates were 10-fold serially diluted in PBS, and 100 µL aliquots were plated on BA plates. CFUs were enumerated after overnight incubation at 37 °C.

[4] = tested on: human keratinocytes and dermal fibroblasts; test: Cytotoxicity summary over human skin cells; format: cell-based; details: 24 h
Experimental: as §2

A. baumannii RUH875 = test: Bactericidal (time-kill) kinetics; format: cell-based, Acinetobacter baumannii; details: within 1 min at 3.75 µM
Experimental: as §1

[5] = DMEM 2% FBS, concentration causing >30% membrane permeation
[6] = WST-1, concentration causing <70% metabolic activity

In the case of “Ac-LKRVWKRVFKLLKRYWRQLKKPVR-NH2 (N-terminus and C-terminus assumed) [SAAP-148, reference compound]”, the “Time to complete killing” value (S. aureus JAR060131) is reported as no more than 5 min, the “Cytotoxicity, LDH leakage” value [1, 5] is reported as 1.88 µM and the “Cytotoxicity, Metabolic activity” value [1, 6] is reported as 3.75 µM. For the same substance, the “Cytotoxicity, LDH leakage” value [2, 5] was 3.75 µM, the “Cytotoxicity, Metabolic activity” value [2, 6] was 3.75 µM and the “Hemolytic concentration (HC) < 30%” value (human erythrocytes) was 0.47 µM. The “Reduction of bacterial load (CFU counts)” value [3] was “significantly reduced bacterial load”, the “Cytotoxic thresholds, WST-1 and LDH” value [4] was 1.88 to 3.75 µM and the “Log reduction in CFU” value (A. baumannii RUH875) was greater than 3 log.
